Tests used:
[1] = test system: IL-6 induced pSTAT3 in rat retina/choroid; experiment: Pharmacodynamic assay: inhibition of IL6-induced pSTAT3 in rats; type: in vivo; conditions: rat retina/choroid homogenates; 45 μg intravitreal dose; one hour after injection
Protocol: The ability of a single intravitreal administration of test compound to inhibit IL-6 induced pSTAT3 was measured in rat retina/choroid homogenates.
A solution formulation was prepared by dissolving compound 1 in 1% HPMC E5+15% HPβCD, pH7 to attain a target concentration of […]. Female Lewis rats were intravitreally (IVT) dosed (5 μL per eye) with either the vehicle, vehicle plus rat IL-6 (Peprotech; 0.5 μg), or a combination of IL-6 plus compound (0.5 μg IL-6 and 45 μg compound 1). Ocular tissues were dissected one hour after the IVT injection. The retina/choroid tissues were homogenized and pSTAT3 levels were measured using an AlphaLisa (PerkinElmer). The percent inhibition of IL-6-induced pSTAT3 was calculated in comparison to the vehicle and IL-6 groups.

JAK3 = target: T1, JAK3 (Homo sapiens, UniProt P52333); experiment: Biochemical JAK kinase assay (LanthaScreen), JAK3; conditions: converted from pIC50 by Cheng-Prusoff; 1.6 μM ATP; read-out: JAK 3 pKi (converted)
T1 construct: GST; purchased Life Technologies
Protocol: A panel of four LanthaScreen JAK biochemical assays (JAK1, 2, 3 and Tyk2) were carried in a common kinase reaction buffer (50 mM HEPES, pH 7.5, 0.01% Brij-35, 10 mM MgCl2, and 1 mM EGTA). Recombinant GST-tagged JAK enzymes and a GFP-tagged STAT1 peptide substrate were obtained from Life Technologies.
Serially diluted compound was pre-incubated with each of the four JAK enzymes and the substrate in white 384-well microplates (Corning) at ambient temperature for 1 h. ATP was subsequently added to initiate the kinase reactions in 10 μL total volume, with 1% DMSO. […] The plates were allowed to incubate at ambient temperature for 1 h before being read on the EnVision reader (Perkin Elmer). Emission ratio signals (520 nm/495 nm) were recorded and utilized to calculate the percent inhibition values based on DMSO and background controls.
For dose-response analysis, percent inhibition data were plotted vs. compound concentrations, and IC50 values were determined from a 4-parameter robust fit model with the Prism software (GraphPad Software). Results were expressed as pIC50 (negative logarithm of IC50) and subsequently converted to pKi (negative logarithm of dissociation constant, Ki) using the Cheng-Prusoff equation.

CDK7 = target: T2, CDK7 (Homo sapiens, UniProt P50613); experiment: Kinome screen, CDK7; type: binding; conditions: screened at 1 μM
T2 construct: made in house; host or cells: E. coli BL21-derived host (T7 phage) or HEK-293 cells
Protocol: (§1) Compounds 1 and C-1 were screened against other kinases to evaluate their selectivity profile.
(§2) Kinase-tagged T7 phage strains were grown in parallel in 24-well blocks in an E. coli host derived from the BL21 strain. E. coli were grown to log-phase and infected with T7 phage from a frozen stock (multiplicity of infection=0.4) and incubated with shaking at 32° C. until lysis (90-150 minutes). The lysates were centrifuged (6,000×g) and filtered (0.2 μm) to remove cell debris. The remaining kinases were produced in HEK-293 cells and subsequently tagged with DNA for qPCR detection.
(§3) Streptavidin-coated magnetic beads were treated with biotinylated small molecule ligands for 30 minutes at room temperature to generate affinity resins for kinase assays. The liganded beads were blocked with excess biotin and washed with blocking buffer (SeaBlock (Pierce), 1% BSA, 0.05% Tween 20, 1 mM DTT) to remove unbound ligand and to reduce non-specific phage binding. Binding reactions were assembled by combining kinases, liganded affinity beads, and test compounds in 1× binding buffer (20% SeaBlock, 0.17×PBS, 0.05% Tween 20, 6 mM DTT). Test compounds were prepared as 40× stocks in 100% DMSO and directly diluted into the assay. All reactions were performed in polypropylene 384-well plates in a final volume of 0.04 ml. […] The kinase concentration in the eluates was measured by qPCR. […]

CSF1R = target: T3, CSF1R (Homo sapiens, UniProt P07333); experiment: Kinome screen, CSF1R; type: binding; conditions: screened at 1 μM
T3 construct: made in house; host or cells: E. coli BL21-derived host (T7 phage) or HEK-293 cells
Protocol: as §1, §2, §3

[2] = test system: IL-6 trans-signaling (IL6+sIL6Rα)-induced STAT3 phosphorylation in HRMECs; experiment: Inhibition of IL-6 trans-signaling stimulated p-STAT3 in primary human retinal microvascular endothelial cells; type: cell-based; conditions: HRMEC, 500 pM IL-6, 5 nM sIL6Rα, three independent experiments, read-out: pIC50, inhibition of IL-6 trans-signaling stimulated p-STAT3 (converted)
Protocol: The cellular potency of the test compound toward inhibition of IL-6 trans-signaling (IL6+sIL6Rα)-induced STAT3 phosphorylation was measured in primary human retinal microvascular endothelial cells (HRMECs). IL-6 trans-signaling is mediated by IL-6 receptor beta (gp130), which is intracellularly coupled to JAK enzymes. Following gp130 engagement and dimerization, JAKs are activated and directly phosphorylate STAT3. Thus, this assay provides a measure of JAK cellular potency. HRMECs (Cell Systems, Kirkland Wash.) were plated in sterile, tissue culture treated, flat-bottom 96-well assay plates coated with Attachment Factor™ (Cell Systems, Kirkland Wash.) at a density of 1×10^4 cells per well. HRMEC cultures were grown for 3 days at 37° C., 95% humidity, 5% CO2 in culture media supplemented with 10% fetal bovine serum, Culture Boost™ growth factors, and BacOff® antibiotic (Cell Systems, Kirkland Wash.). […] To determine the inhibitory potency of the test compound, levels of p-STAT3 were measured using AlphaLISA® SureFire® Ultra™ p-STAT3 (Tyr705) assay kit (PerkinElmer) according to manufacturer's instructions. IC50 values were determined from inhibition curves of % p-STAT3 Alpha Signal vs test compound concentration (curve fitting conducted with GraphPad Prism 7.0). Data are expressed as pIC50 (negative log10(test compound concentration)).

T1 sequence (P52333 whole entry): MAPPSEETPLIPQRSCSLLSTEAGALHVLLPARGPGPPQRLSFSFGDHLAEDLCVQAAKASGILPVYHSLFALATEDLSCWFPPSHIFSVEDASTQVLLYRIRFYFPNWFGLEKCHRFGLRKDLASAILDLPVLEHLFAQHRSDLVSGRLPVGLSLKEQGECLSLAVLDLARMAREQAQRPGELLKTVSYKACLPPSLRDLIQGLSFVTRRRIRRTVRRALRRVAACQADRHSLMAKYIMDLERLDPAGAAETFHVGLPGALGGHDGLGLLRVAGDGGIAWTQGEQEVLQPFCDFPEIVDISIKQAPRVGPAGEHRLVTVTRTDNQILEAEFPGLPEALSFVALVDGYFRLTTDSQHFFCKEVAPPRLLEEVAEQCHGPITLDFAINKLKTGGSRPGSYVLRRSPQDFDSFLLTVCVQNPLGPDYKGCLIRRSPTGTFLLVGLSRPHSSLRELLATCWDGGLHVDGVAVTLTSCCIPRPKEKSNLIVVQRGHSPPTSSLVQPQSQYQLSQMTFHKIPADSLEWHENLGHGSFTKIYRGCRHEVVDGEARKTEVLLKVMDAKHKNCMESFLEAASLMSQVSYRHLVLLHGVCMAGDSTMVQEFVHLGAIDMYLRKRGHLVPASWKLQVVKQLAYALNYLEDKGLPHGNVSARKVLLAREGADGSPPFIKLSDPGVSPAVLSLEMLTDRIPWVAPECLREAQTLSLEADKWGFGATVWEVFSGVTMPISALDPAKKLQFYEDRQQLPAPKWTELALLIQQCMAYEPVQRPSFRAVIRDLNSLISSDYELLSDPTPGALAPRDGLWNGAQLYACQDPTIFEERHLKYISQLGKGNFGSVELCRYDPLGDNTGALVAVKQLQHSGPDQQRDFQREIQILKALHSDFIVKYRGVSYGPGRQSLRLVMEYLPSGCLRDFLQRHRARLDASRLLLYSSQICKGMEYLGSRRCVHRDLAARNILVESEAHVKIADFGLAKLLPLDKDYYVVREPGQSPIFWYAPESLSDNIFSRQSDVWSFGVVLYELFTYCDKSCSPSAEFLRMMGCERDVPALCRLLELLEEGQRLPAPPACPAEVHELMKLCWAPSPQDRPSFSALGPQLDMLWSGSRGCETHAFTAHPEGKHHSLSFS
T3 sequence (P07333 20-972): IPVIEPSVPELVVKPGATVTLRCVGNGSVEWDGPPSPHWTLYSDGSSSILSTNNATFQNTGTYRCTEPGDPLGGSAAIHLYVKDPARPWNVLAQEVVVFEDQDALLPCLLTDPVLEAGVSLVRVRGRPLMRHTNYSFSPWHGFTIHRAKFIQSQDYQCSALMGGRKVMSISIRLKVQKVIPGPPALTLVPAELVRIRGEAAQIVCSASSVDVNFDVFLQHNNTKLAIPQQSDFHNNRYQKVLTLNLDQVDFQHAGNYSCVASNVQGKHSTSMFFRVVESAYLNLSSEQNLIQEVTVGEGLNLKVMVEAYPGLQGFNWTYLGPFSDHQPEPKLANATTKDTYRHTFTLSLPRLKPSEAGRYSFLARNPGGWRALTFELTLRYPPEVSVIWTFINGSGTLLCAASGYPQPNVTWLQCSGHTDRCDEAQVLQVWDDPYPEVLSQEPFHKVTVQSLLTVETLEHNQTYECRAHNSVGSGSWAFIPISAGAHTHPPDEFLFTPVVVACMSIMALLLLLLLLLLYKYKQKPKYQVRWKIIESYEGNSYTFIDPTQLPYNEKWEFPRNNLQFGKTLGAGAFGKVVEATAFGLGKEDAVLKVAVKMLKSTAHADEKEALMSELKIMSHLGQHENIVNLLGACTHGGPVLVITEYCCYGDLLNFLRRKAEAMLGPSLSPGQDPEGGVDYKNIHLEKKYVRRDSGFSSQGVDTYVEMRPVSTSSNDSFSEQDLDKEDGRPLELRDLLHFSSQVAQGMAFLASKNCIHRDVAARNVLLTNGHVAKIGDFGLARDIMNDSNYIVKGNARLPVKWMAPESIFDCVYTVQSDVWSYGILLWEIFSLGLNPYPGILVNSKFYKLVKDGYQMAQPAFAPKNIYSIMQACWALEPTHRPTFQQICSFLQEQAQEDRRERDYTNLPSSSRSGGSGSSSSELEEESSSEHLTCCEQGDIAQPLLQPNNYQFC
T2 sequence (P50613 whole entry): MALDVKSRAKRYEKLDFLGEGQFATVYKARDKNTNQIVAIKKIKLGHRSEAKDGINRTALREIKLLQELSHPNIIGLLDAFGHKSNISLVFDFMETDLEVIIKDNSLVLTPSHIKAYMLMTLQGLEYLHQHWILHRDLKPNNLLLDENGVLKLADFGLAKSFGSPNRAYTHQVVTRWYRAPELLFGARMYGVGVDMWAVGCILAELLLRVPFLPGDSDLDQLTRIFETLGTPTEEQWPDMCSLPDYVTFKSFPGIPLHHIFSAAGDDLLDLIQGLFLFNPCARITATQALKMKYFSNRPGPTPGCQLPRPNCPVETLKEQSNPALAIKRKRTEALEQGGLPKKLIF

## CCc1cc(O)c(F)cc1-c1cc(F)c2c(-c3nc4c([nH]3)CCN(C(=O)[C@]35C[C@H]3CCN5)C4)n[nH]c2c1 [Compound 1, (1S,5R)-2-azabicyclo[3.1.0]hexan-1-yl(2-(6-(2-ethyl-5-fluoro-4-hydroxyphenyl)-4-fluoro-1H-indazol-3-yl)-6,7-dihydro-3H-imidazo[4,5-c]pyridin-5(4H)-yl)methanone]
[1]
  inhibition of IL-6-induced pSTAT3: 84%
JAK3
  Ki: 0.251 nM
CDK7
  inhibition at 1 µM: 82%
CSF1R
  inhibition at 1 µM: 98%
[2]
  IC50: 501 nM

— patent publication US10968222B2, “2-azabicyclo hexane JAK inhibitor compound” (THERAVANCE BIOPHARMA R&D IP, LLC, priority 2018, dated 2021)
